The values below come from patent US6992193B2, “Sulfonylamino phenylacetamide derivatives and methods of their use” (Adolor Corporation, priority 2003, dated 2006).

Data set [1] addresses T1, cloned human μ opioid receptor (Homo sapiens, UniProt P35372).
T1 construct: expressed in transfected cells
Briefly: [3H]diprenorphine binding to cloned human μ opioid receptor. The protocol: (§1) IC50 values were obtained by nonlinear analysis of the data using GraphPad Prism version 3.00 for Windows (GraphPad Software, San Diego). Ki values were obtained by Cheng-Prusoff corrections of IC50 values.
(§2) After dilution in buffer A and homogenization as before, membrane proteins (10-80 μg) in 250 μL were added to mixtures containing test compound and [^3H]diprenorphine (0.5 to 1.0 nM, 40,000 to 50,000 dpm) in 250 μL of buffer A in 96-well deep-well polystyrene titer plates (Beckman). After incubation at room temperature for one hour, the samples were filtered through GF/B filters that had been presoaked in a solution of 0.5% (w/v) polyethylenimine and 0.1% (w/v) bovine serum albumin in water. The filters were rinsed 4 times with 1 mL of cold 50 mM Tris HCl, pH 7.8 and radioactivity remaining on the filters determined by scintillation spectroscopy. Nonspecific binding was determined by the minimum values of the titration curves and was confirmed by separate assay wells containing 10 μM naloxone.
(§3) To determine the equilibrium dissociation constant for the inhibitors (Ki), radioligand bound (cpm) in the presence of various concentrations of test compounds was measured. […] The nonlinear regression fit was performed using the program Prism® (GraphPad Software, San Diego, Calif.). The Ki values were then determined from the […] values by the following equation, [formula] • where [ligand] is the concentration of radioligand; and • Kd is the equilibrium dissociation constant for the radioligand.

Data set [2] has as its target T2, cloned human δ opioid receptor (Homo sapiens, UniProt P41143).
T2 construct: expressed in transfected cells
Description: [3H]diprenorphine binding to cloned human δ opioid receptor. The procedure: as §1, §2, §3

The target in the next data set is T3, CYP2D6 (Homo sapiens, UniProt P10635).
T3 construct: purchased BD Biosciences
T3 sequence (P10635 whole entry): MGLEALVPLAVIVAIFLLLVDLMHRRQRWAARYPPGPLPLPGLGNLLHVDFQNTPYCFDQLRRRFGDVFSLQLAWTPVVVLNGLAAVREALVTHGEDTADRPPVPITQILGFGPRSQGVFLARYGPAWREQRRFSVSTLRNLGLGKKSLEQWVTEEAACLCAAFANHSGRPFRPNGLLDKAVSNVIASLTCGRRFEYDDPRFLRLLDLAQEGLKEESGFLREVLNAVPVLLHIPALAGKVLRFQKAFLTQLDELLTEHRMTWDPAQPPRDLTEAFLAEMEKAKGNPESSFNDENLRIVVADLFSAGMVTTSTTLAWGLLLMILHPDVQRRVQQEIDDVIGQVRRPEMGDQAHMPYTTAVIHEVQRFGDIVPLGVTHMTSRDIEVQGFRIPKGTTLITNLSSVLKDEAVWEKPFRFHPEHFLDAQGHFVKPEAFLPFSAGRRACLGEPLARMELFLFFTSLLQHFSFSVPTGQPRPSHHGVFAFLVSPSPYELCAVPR
Briefly: Inhibition of CYP2D6 catalyzed conversion of MAMC to HAMC. In kind it is in vitro ADME. The protocol:
Inhibition of CYP2D6 Catalyzed Conversion of MAMC to HAMC
Microsomes containing baculovirus expressed human recombinant CYP2D6 and MAMC were purchased from BD Biosciences. The method is a modification of the method provided by BD Biosciences.
• Assay Buffer=50 mM KPO4, 15 μg/mL NADP^+, 0.30 mg/mL glucose-6-phosphate, 0.20 mg/mL MgCl2, 0.96 U/mL glucose-6-phosphate dehydrogenase, 2.5 μM MAMC, pH 7.4. • Dilution Buffer=50 mM KPO4, pH 7.4 • Enzyme Buffer=150 mM KPO4, pH 7.4 • Stop Solution=80% acetonitrile, 20% 0.5 M Tris Base Procedure:
The assays were done in black 96 well plates (VWR Cat# 22221-572) and contained: 40 μL assay buffer, 10 μL test compound in dilution buffer and 50 μL of 10-15 pmol/mL CYP2D6 in enzyme buffer. Final concentrations: (100 mM KPO4, pH 7.4, 7.9 μM NADP^+, 0.36 mM glucose-6-phosphate, 0.4 mM MgCl2, 0.38 U/mL glucose-6-phosphate dehydrogenase, 1 μM MAMC (BD Biosciences), 0.5 pmol CYP2D6 (BD Biosciences))
For large experiments, assay buffer and test compound were added using the MiniTrak IV (Packard Biosciences), otherwise they were added using 25-250 μL and 5-100 μL 8 channel electronic pipettors (BioHit). CYP2D6 was added using 25-250 μL 8 channel electronic pipettor.
Titrations are done in either 96 well deep-well plates (Beckman) or 96 well microtiter plates (Costar), an initial dilution in dilution buffer is prepared from stock solutions in DMSO to start either 8 (1:6) or 12 (1:3.15) serial dilutions. For 1:6 dilutions, 50 μL for each dilution is transferred to 250 μL dilution buffer. For 1:3.15 dilutions, 50 μL for each dilution is transferred to 108 μL dilution buffer. Further details on concentrations will be provided in each experiment. Titrations are done using either 25-250 μL 8 channel electronic pipettor, 30-300 μL 12 channel manual pipettor (Spectrum), or the Multiprobe II. For screening, dilution plates are prepared in dilution buffer in 96 well microtiter plates from masterplates in 100% DMSO using the Multiprobe II or MiniTrak IV. After assay buffer and test compound has been added, the plates and the enzyme buffer are prewarmed at 37° C. for 15 minutes. After prewarming, CYP2D6 is added to then enzyme buffer and then added to the assay plate using 25-250 μL 8 channel electronic pipettor and the plates are incubated for 15 minutes at 37° C. After incubation, 50 μL stop solution is added using 25-250 μL 8 channel electronic pipettor. The plates are then counted on the Fusion (Packard Biosciences) for 4 sec/well using and excitation filter of 390 nm and an emission filter of 460 nm, intensity setting of 1, high detector sensitivity.
Non-specific relative fluorescent units (RFU) are determined in the presence of 10 μM quinidine in wells A1, B1, and C1 of each plate and total RFU determined in wells D1, E1, F1 in the absence of test compound. Specific HAMC production is the difference between total and nonspecific. For each compound, a percent inhibition of HAMC production is calculated by: % I=(1−(A/B))*100 • where A=cpm specifically bound for test compound • B=cpm specifically bound in the absence of test compound For experiments where the plates are registered in the biological database, % I is determined automatically by the biological database. Titrations
IC50's are calculated using nonlinear regression to a one-site model using GraphPad Prism or a VB algorithm fitting the data to that equation.

The next data set addresses CYP3A4 (Homo sapiens, UniProt P08684). Description: Inhibition of CYP3A4 conversion of dibenzylfluorescein to fluorescein. In kind it is in vitro ADME. The protocol: (§4) Inhibition of CYP2C9 and CYP3A4
(§5) These assays were carried out as described using CYP2C9 and CYP3A4 conversion of dibenzylfluorescein (DBF) to fluorescein (F).

In the next data set the target is CYP2C9 (Homo sapiens, UniProt P11712). Briefly: Inhibition of CYP2C9 conversion of dibenzylfluorescein to fluorescein. In kind it is in vitro ADME. The protocol: as §4, §5
CYP2C9, sequence (P11712 whole entry): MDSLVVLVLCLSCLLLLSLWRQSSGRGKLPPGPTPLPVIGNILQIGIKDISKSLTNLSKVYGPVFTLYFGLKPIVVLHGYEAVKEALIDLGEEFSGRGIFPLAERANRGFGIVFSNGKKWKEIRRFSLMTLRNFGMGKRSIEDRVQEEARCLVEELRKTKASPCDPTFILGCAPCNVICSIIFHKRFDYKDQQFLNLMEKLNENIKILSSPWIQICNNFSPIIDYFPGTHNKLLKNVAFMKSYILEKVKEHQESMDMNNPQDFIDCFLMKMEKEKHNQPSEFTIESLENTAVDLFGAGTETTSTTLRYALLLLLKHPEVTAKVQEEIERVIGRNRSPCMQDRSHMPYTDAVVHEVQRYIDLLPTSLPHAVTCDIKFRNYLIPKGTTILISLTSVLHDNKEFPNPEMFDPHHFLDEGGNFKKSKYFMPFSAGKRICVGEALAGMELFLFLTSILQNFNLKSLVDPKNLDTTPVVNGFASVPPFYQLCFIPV
The subject of data set [3] is cytochrome P450 enzymes (CYP2D6, CYP3A4, CYP2C9). Description: Overall evaluation of inhibition of major drug metabolizing hepatic cytochrome P450 enzymes. It is filed as in vitro ADME, human.
Where [4] appears, read: inhibition of [3H]diprenorphine binding, cloned human μ receptor, read-out: Ki(μ).
[5] abbreviates: inhibition of [3H]diprenorphine binding, cloned human δ receptor, read-out: Ki(δ).
[6] abbreviates: MAMC to HAMC conversion, read-out: IC50(CYP2D6).
[7] abbreviates: DBF to fluorescein conversion, read-out: IC50(CYP3A4).
Where [8] appears, read: DBF to fluorescein conversion, read-out: IC50(CYP2C9).

Counter-ions that a name gives are not always drawn. Like-named read-outs stand apart in the source and are kept apart here. Bounds are passed on as bounds.

T1 sequence (P35372 whole entry): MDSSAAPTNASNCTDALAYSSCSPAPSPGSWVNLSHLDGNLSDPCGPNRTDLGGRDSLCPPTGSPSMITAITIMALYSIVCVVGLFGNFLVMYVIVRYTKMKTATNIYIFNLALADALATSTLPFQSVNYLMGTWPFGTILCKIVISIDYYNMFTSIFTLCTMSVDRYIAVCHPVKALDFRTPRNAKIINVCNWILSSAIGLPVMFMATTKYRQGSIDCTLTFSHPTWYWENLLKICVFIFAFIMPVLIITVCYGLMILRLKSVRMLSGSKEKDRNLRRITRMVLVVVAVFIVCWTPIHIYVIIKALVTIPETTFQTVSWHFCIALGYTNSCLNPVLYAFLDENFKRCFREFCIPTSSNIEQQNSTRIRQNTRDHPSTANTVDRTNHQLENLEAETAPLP
CYP3A4, sequence (P08684 whole entry): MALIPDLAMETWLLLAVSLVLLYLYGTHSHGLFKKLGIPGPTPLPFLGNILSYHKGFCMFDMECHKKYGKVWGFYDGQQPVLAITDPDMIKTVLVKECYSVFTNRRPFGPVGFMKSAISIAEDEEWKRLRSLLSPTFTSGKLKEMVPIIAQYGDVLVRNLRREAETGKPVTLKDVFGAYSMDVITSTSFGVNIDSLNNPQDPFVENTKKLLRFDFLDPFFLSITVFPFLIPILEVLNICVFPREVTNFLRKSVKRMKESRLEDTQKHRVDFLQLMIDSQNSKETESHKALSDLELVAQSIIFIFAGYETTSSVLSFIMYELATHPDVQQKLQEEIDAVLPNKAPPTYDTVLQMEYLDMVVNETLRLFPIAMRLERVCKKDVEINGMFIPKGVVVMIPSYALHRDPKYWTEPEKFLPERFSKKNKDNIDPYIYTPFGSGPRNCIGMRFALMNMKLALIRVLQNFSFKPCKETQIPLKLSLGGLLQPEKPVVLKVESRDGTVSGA
T2 sequence (P41143 whole entry): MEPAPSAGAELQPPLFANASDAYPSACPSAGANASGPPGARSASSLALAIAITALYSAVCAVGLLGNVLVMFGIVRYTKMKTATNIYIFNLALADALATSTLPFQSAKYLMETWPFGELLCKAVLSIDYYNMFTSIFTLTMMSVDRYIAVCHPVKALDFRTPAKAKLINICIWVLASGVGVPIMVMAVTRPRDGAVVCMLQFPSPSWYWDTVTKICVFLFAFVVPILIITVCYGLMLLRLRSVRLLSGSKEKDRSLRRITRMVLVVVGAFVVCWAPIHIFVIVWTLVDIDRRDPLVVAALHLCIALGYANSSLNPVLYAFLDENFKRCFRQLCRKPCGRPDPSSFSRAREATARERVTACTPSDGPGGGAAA

On to `CN(C(=O)Cc1cccc(CNS(C)(=O)=O)c1)[C@H](CN1CCCC1)c1ccccc1` [Example 11, 2-[3-(methanesulfonylamino-methyl)-phenyl]-N-methyl-N-[1-(S)-phenyl-2-pyrrolidin-1-yl-ethyl]-acetamide hydrochloride], for which the inhibitory constant (Ki) in data set [1] (setting [4]) worked out at 1900 nM; in data set [2] (setting [5]), 1500 nM. For the same compound, the 50% inhibitory concentration (IC50) at CYP2D6 (setting [6]) is 1400 nM; at CYP3A4 (setting [7]), > 10000 nM.
In the case of `CN(C(=O)Cc1ccc(CNS(C)(=O)=O)cc1)[C@H](CN1CCCC1)c1ccccc1` [Example 12, 2-[4-(methanesulfonylamino-methyl)-phenyl]-N-methyl-N-[1-(S)-phenyl-2-pyrrolidin-1-yl-ethyl]-acetamide], the inhibition constant Ki in data set [1] is 470 nM; in data set [2], > 3000 nM. Moreover, the IC50 against CYP2D6 is 12000 nM; against CYP2C9, > 10000 nM; against CYP3A4, > 10000 nM.
Consider `CN(C(=O)Cc1ccc(CNS(C)(=O)=O)cc1)[C@H](CN1CC[C@H](O)C1)c1ccccc1` [Example 13, N-{2-[3-(S)-hydroxy-pyrrolidin-1-yl]-1-(S)-phenyl-ethyl}-2-[4-(methanesulfonylamino-methyl)-phenyl]-N-methyl-acetamide hydrochloride], for which the Ki stood at 140 nM in data set [1] and 190 nM in data set [2]. For the same compound, the values for the half-inhibitory concentration (IC50) on CYP2D6 (setting [6]), at CYP2C9 (setting [8]) and on CYP3A4 (setting [7]) were 9300 nM, > 10000 nM and > 10000 nM, respectively.
`CCS(=O)(=O)NCc1ccc(CC(=O)N(C)[C@H](CN2CC[C@H](O)C2)c2ccccc2)cc1.Cl` [Example 14, 2-[4-(ethanesulfonylamino-methyl)-phenyl]-N-{2-[3-(S)-hydroxy-pyrrolidin-1-yl]-1-(S)-phenyl-ethyl}-N-methyl-acetamide hydrochloride]: the Ki was determined as 1000 nM in data set [1] and 510 nM in data set [2] (setting [5]). Besides, the concentration for half-maximal inhibition (IC50) on CYP2D6 (setting [6]), on CYP2C9 (setting [8]) and at CYP3A4 (setting [7]) was > 10000 nM each time. Further, the “activity toward the cytochrome P450 (summary in words)” value in data set [3] was “metabolically stable in regard to their activity toward the cytochrome P450”.
As for `CC(C)S(=O)(=O)NCc1ccc(CC(=O)N(C)[C@H](CN2CC[C@H](O)C2)c2ccccc2)cc1.Cl` [Example 15, N-{2-[3-(S)-hydroxy-pyrrolidin-1-yl]-1-(S)-phenyl-ethyl}-N-methyl-2-{4-[(propane-2-sulfonylamino)-methyl]-phenyl}-acetamide hydrochloride], the inhibitory constant (Ki) in data set [1] (setting [4]) is 1100 nM; in data set [2] (setting [5]), 470 nM. In addition, the IC50 on CYP2D6 (setting [6]), on CYP2C9 (setting [8]) and on CYP3A4 (setting [7]) was > 10000 nM throughout. In addition, the “activity toward the cytochrome P450 (summary in words)” value in data set [3] is “metabolically stable in regard to their activity toward the cytochrome P450”.
`CCCCS(=O)(=O)NCc1ccc(CC(=O)N(C)[C@H](CN2CC[C@H](O)C2)c2ccccc2)cc1` [Example 17, 2-{4-[(butane-1-sulfonylamino)-methyl]-phenyl}-N-{2-[3-(S)-hydroxy-pyrrolidin-1-yl]-1-(S)-phenyl-ethyl}-N-methyl-acetamide hydrochloride]: the results for the inhibition constant Ki in data set [1] and in data set [2] were 1000 nM and 170 nM, respectively. Moreover, the concentration for half-maximal inhibition (IC50) at CYP2D6 (setting [6]) was 7200 nM; at CYP2C9 (setting [8]), > 10000 nM; on CYP3A4 (setting [7]), 7000 nM.
As for `CN(C(=O)Cc1ccc(CNS(=O)(=O)c2ccccc2)cc1)[C@H](CN1CC[C@H](O)C1)c1ccccc1` [Example 18, 2-[4-(benzenesulfonylamino-methyl)-phenyl]-N-{2-[3-(S)-hydroxy-pyrrolidin-1-yl]-1-(S)-phenyl-ethyl}-N-methyl-acetamide hydrochloride], the inhibition constant Ki was found to be 880 nM in data set [1] (setting [4]) and 83 nM in data set [2] (setting [5]). The 50% inhibitory concentration (IC50) was found to be 3400 nM at CYP2D6 (setting [6]), 8000 nM at CYP2C9 (setting [8]) and 4300 nM at CYP3A4 (setting [7]).
For `CN(C(=O)Cc1ccc(CNS(=O)(=O)c2ccc(F)cc2)cc1)[C@H](CN1CC[C@H](O)C1)c1ccccc1` [Example 19, 2-{4-[(4-fluoro-benzenesulfonylamino)-methyl]-phenyl}-N-{2-[3-(S)-hydroxy-pyrrolidin-1-yl]-1-(S)-phenyl-ethyl}-N-methyl-acetamide hydrochloride], the inhibition constant Ki in data set [1] turned out to be 1100 nM; in data set [2], 64 nM. The IC50 was 6300 nM at CYP2D6 (setting [6]), > 10000 nM at CYP2C9 (setting [8]) and 2900 nM at CYP3A4 (setting [7]).
For `Cc1ccc(S(=O)(=O)NCc2ccc(CC(=O)N(C)[C@H](CN3CC[C@H](O)C3)c3ccccc3)cc2)cc1` [Example 20, N-{2-[3-(S)-hydroxy-pyrrolidin-1-yl]-1-(S)-phenyl-ethyl}-N-methyl-2-{4-[(toluene-4-sulfonylamino)-methyl]-phenyl}-acetamide hydrochloride], the values for the inhibition constant Ki in data set [1] (setting [4]) and in data set [2] were 700 nM and 28 nM, respectively. Moreover, the IC50 was 4900 nM at CYP2D6 (setting [6]), > 10000 nM at CYP2C9 (setting [8]) and > 10000 nM at CYP3A4 (setting [7]).
For `CN(C(=O)Cc1ccc(CNS(=O)(=O)Cc2ccccc2)cc1)[C@H](CN1CC[C@H](O)C1)c1ccccc1` [Example 21, N-{2-[3-(S)-hydroxy-pyrrolidin-1-yl]-1-(S)-phenyl-ethyl}-N-methyl-2-[4-(phenylmethanesulfonylamino-methyl)-phenyl]-acetamide hydrochloride], the results for the inhibition constant (Ki) in data set [1] (setting [4]) and in data set [2] were 480 nM and 170 nM, respectively. Besides, the half-inhibitory concentration (IC50) on CYP2D6 (setting [6]) was 5300 nM; on CYP2C9 (setting [8]), > 10000 nM; on CYP3A4 (setting [7]) it was 5600 nM.
On to `CN(C(=O)Cc1ccc(NS(C)(=O)=O)cc1)[C@H](CN1CC[C@H](O)C1)c1ccccc1` [Example 25, N-{2-[3-(S)-hydroxy-pyrrolidin-1-yl]-1-(S)-phenyl-ethyl}-2-(4-methanesulfonylamino-phenyl)-N-methyl-acetamide hydrochloride], for which the Ki came out at 100 nM in data set [1] and 180 nM in data set [2]. Besides, the IC50 at CYP2D6 (setting [6]) was 4900 nM; on CYP3A4 (setting [7]) it was > 10000 nM.
